The text below walks through data of ChEMBL document CHEMBL1157539, “Thousands of chemical starting points for antimalarial lead identification” (Nature, 2010).

The test concerns Plasmodium falciparum. Kind of test: GSK_TCMDC: Inhibition of Plasmodium falciparum 3D7 in whole erythrocytes, using parasite LDH activity as an index of growth. It counts as functional, organism-based. As to conditions: Plasmodium falciparum, 3D7.

`Cc1ccc(NS(=O)(=O)c2ccc(C(C)N3CCC(N4CCCCC4)CC3)cc2)cc1C` (stereo not given) displayed an XC50 of 763 nM. Take `C=C(NC(=O)C1CCCCC1)C(=O)OC`: the XC50 was found to be 849 nM. With `COc1ccc(NC(=O)[C@H](Cc2ccccc2)Nc2cc(C)nc(NCc3ccccc3C)n2)cc1` the figure was 794 nM. `O=S(=O)(c1cccc(C(F)(F)F)c1)N1CCC(CO)(Cc2cccc(C(F)(F)F)c2)CC1` yielded an XC50 of 964 nM. `Cc1cccc(C(=O)NCCCN2CCC(NC(=O)/C=C/c3ccc(Cl)c(Cl)c3)CC2)c1` came in with an XC50 of 1700 nM.

`COC(=O)c1cccc(CNCc2cccc(-c3cccc(-c4nc5cc(F)ccc5[nH]4)c3)c2)c1` gave an XC50 of 129 nM.

Take `COc1ccc2nccc(N(C)CC3(O)CCN(CCc4ccc5c(c4)NC(=O)CS5)CC3)c2n1`: the XC50 worked out at 136 nM.

Turning to `Fc1ccc(CN2CCN(c3ncnc4cc(-c5ccccc5)sc34)CC2)cc1`, the XC50 turned out to be 1020 nM. Then `Cc1cccc(-c2nc(Nc3ccncc3)c3ccc([N+](=O)[O-])cc3n2)n1`, with 831 nM; and `Cc1ccc(-n2cc(CNCCCn3ccnc3)c(-c3cccc(C)c3)n2)cc1`, with 773 nM. Then `CCC(C)NS(=O)(=O)c1ccc2nc(Nc3ccc(C)cc3)n(C3CCCCC3C)c2c1` (stereo not given), with 592 nM. With `COc1c(C2CCN(CCN3CCC(NC(=O)c4ccc(-c5ccc(C(F)(F)F)cc5)cc4)CC3)CC2)ccc2c1CCCC2` the figure was 1360 nM; with `COc1ccc(C=NN=c2cc(C)[nH]c3ccccc23)c(OC)c1`, 616 nM; with `CCCCCN1CCCC1CNS(=O)(=O)c1ccc(C(=O)Nc2ccc(C(F)(F)F)cc2)cc1` (stereo not given), 838 nM. As to `O=C(Nc1ccc(Cl)cc1)c1cc(Cl)ccc1NC(=O)C1(c2ccc(Cl)cc2)CCCC1`, the XC50 turned out to be 1100 nM. With `COc1ccccc1N1CCN(Cc2cc(C(C)C)c(C)cc2O)CC1` the figure was 572 nM.

Compound `O=C(NCCN1CCCC1)c1cccc(-c2ccc(-c3nc4cc(F)ccc4[nH]3)cc2)c1` returned an XC50 of 722 nM. Take `CN(C)CCn1cc(C(=O)c2cc(Cl)ccc2O)cc1-c1nc2ccccc2c(=O)[nH]1`: the XC50 amounted to 634 nM. Then `Cc1ccc(CC(C)NCC(O)c2cccc(C#N)c2)cc1` (stereo not given), with 944 nM; and `N#Cc1cc(C(=O)Nc2ccccc2)c(N)nc1SCC(=O)Nc1ccc(Br)cc1`, with 1100 nM. With `CC(Cc1ccc(OCC(=O)NCC2CCN(CCc3cccc(Cl)c3)CC2)cc1)NCCc1cccc(Cl)c1` (stereo not given) the figure was 663 nM. With `CCC1CN(CCCn2c3ccccc3c3ccccc32)C(CC)CN1` (stereo not given) the figure was 1080 nM; with `Cc1cc(N[C@@H](Cc2ccccc2)C(=O)NCCc2ccccc2)nc(NCC2CCCCC2)n1`, 917 nM. `CC12CCC(=O)N1C(C(=O)Nc1cccc(C(=O)Nc3cccc(C(F)(F)F)c3)c1)CS2` (stereo not given): the XC50 was 358 nM. `CNC(=O)c1ccc2[nH]cc(C3CCN(CC4CCC(NC(=O)/C=C/c5ccc(Cl)c(Cl)c5)CC4)CC3)c2c1` (stereo not given) registered an XC50 of 1010 nM. Then `c1cc(Nc2nc(-c3ccc(-c4csc(Nc5ccncc5)n4)cc3)cs2)ccn1`, with 117 nM; and `O=C(CSc1ccccn1)Nc1c(F)cccc1F`, with 1210 nM. The compound `O=C(CN1CCCCC1)Nc1ccc(Nc2nccc(NCC(O)c3ccccc3)n2)cc1` (stereo not given) came in with an XC50 of 583 nM. Then `O=C(Nc1ccc(-c2cccc(-c3nc4cc(F)ccc4[nH]3)c2)cc1)Nc1ccc(Cl)c(Cl)c1`, with 647 nM; and `CCCCCCNC(=O)c1nn(CCN2CCC(N3CCCC3)CC2)cc1-c1ccc(Cl)c(Cl)c1`, with 733 nM; and `COc1ccc(-c2ccc(NC(=O)c3cccc(Cl)c3)cc2)cc1CN1CCCC1`, with 705 nM. With `NC1=NC(Cc2ccccc2)(c2ccncc2)C(=O)N1CCCc1ccccc1` (stereo not given) the figure was 936 nM; with `CS(=O)(=O)Nc1cccc(-c2cnc3[nH]cc(-c4ccc(CN)cc4)c3c2)c1`, 986 nM; with `COc1cccc(NC(=O)c2ccc(NCCCN3CCC(C)CC3)c([N+](=O)[O-])c2)c1`, 770 nM. Then `COCCN1CCN(Cc2ccc(-c3cccc(-c4nc5ccccc5[nH]4)c3)cc2)CC1`, with 1110 nM. On to `CCCc1c(Cl)cc(CNCCCNc2nc3ccncc3[nH]2)cc1Cl`, for which the XC50 was found to be 744 nM. Then `O=C(Nc1ccc(-c2nc3ccccc3[nH]2)cc1)c1cccc(S(=O)(=O)N2CCCC2)c1`, with 743 nM. With `CN1CCCC(CN2CCN(Cc3ccc(-c4ccc(-c5nc6cc(F)ccc6[nH]5)cc4)cc3)CC2)C1` (stereo not given) the figure was 117 nM; with `CCN(C(=O)NC)C1c2cc(C#N)ccc2OC(C)(C)C1O` (stereo not given), 304 nM; with `O=C(/C=C/c1ccc(Cl)c(Cl)c1)N1CCC(CCCN2CCC(c3c[nH]c4ccc(O)cc34)CC2)CC1`, 694 nM.

Turning to `CN(CCN1CCC(c2c[nH]c3ccccc23)CC1)c1ccc(-c2nc3cc(Cl)c(Cl)cc3[nH]2)cc1`, the XC50 was 119 nM. With `O=C(Nc1ccc(Cl)cc1)Nc1ccc(-c2ccc(-c3nc4ccccc4[nH]3)cc2)cc1` the figure was 50.7 nM.

The compound `CC(C(=O)OCCOCn1cnc2c(=O)[nH]c(N)nc21)N(C)C(=O)OC(C)(C)C` (stereo not given) showed an XC50 of 1000 nM. With `COc1ccc(-c2nc3c4ccccc4c4ccc(I)cc4c3[nH]2)cc1` the figure was 1100 nM; with `Cc1nn(-c2ccnc3cc(Cl)ccc23)c(C)c1C(=O)NCc1cc(Cl)cc(Cl)c1`, 869 nM. With `COc1ccc(NC(=O)[C@H](CC(C)C)Nc2cc(C)nc(NCc3cccc(C)c3)n2)cc1` the figure was 1020 nM.

In turn, `CC(C)CNC(=O)c1cncc(-c2ccc(CN(C)C3CCN(C)CC3)cc2)c1` showed an XC50 of 878 nM. As for `Cc1ccc(NC(=O)NCCCCCN2CCC(c3c[nH]c4ccccc34)CC2)cc1I`, the XC50 is 815 nM. The compound `Clc1ccc(OCc2ccccc2)c(-c2nc(-c3nc4ncc(Br)cc4[nH]3)cs2)c1` showed an XC50 of 214 nM. The compound `COc1ccc2nccc([C@@H](O)CN3CCC(NCc4ccc(OC)c(NC=O)c4)CC3)c2c1` registered an XC50 of 753 nM.

The compound `Cc1ccc2nc(-c3ccc(C(=O)NCc4ccc(Cl)c(Cl)c4)cc3)[nH]c2c1C` gave an XC50 of 790 nM. Then `C=C[C@]1(C)C[C@@H](OC(=O)c2n[nH]c3ccccc3c2=O)[C@]2(C)[C@H](C)CC[C@]3(CCC(=O)[C@H]32)[C@@H](C)[C@@H]1O`, with 670 nM. With `CC(=O)Nc1ccc(C(=O)NC2CCN(c3ccnc4cc(Cl)ccc34)CC2)cc1` the figure was 357 nM; with `O=C(Cc1c[nH]cn1)Nc1ccc(-c2ccc(-c3nc4cc(F)ccc4[nH]3)cc2)cc1`, 731 nM; with `COc1cc(C=C(C2=NC(=O)CS2)c2nc3cccnc3n2C)ccc1O`, 1000 nM. With `CC[C@H](C)[C@@H](C(=O)N1CCOCC1)N1CC[C@H](NS(=O)(=O)CC(C)(C)c2ccc(Cl)cc2)C1=O` the figure was 550 nM; with `CC(C)CNCc1cccc(-c2cccc(CN(CCCN3CCN(C)CC3)C(=O)Nc3ccccc3)c2)c1`, 1150 nM. Compound `CS(=O)(=O)c1ccccc1CNC(=O)c1ccc(-c2ccc(-c3nc4cc(C(F)(F)F)ccc4[nH]3)s2)cc1` showed an XC50 of 236 nM.

In turn, `Cn1cnc2c(SCc3ccccc3OCc3ccccc3)ncnc21` returned an XC50 of 922 nM. With `COc1cc2[nH]c(-c3ccc(O)cc3)c(C)c(=O)c2c(OC)c1OC` the figure was 717 nM; with `CC[C@H]1CN2CC[C@H]1C[C@@H]2[C@@H](O)c1cc(Cl)nc2ccc(OC)cc12`, 63.5 nM; with `CCn1cc(CN2CCCC(C(=O)Nc3ccc(-c4nc5ccccc5[nH]4)cc3)C2)cn1` (stereo not given), 927 nM. With `C=C[C@H]1CN(CCCCCCC)CC[C@H]1CCNc1ccnc2ccc(OC)cc12` the figure was 61.8 nM; with `CCOc1ccc(-c2nc3cc(-c4nc5cc(N6CCN(C)CC6)ccc5[nH]4)ccc3[nH]2)cc1`, 108 nM; with `CS(=O)(=O)NCCCNCc1ccc(-c2ccc(-c3nc4cc(C(F)(F)F)ccc4[nH]3)cc2)cc1`, 457 nM. With `O=C(Cc1ccc(NC(=O)c2ccc(O)c(-c3ccc(Cl)c(Cl)c3)c2)cc1)NCCN1CCCCC1` the figure was 841 nM; with `CN1CCN(CCCNCc2ccc(Nc3nccc(Nc4ccc(Oc5ccccc5)cc4)n3)cc2)CC1`, 635 nM.

With `CCCOc1cc(OCCC)cc(-c2cc(=O)c3ccccc3[nH]2)c1`, the XC50 was 58.1 nM. The compound `COc1ccc(-c2cc(C(F)(F)F)n3ncc(C(=O)Nc4cc(C)ccc4O)c3n2)cc1OC` returned an XC50 of 133 nM. Then `CCN(CC)S(=O)(=O)c1ccc(C=CC(=O)Nc2cc(Cl)ccc2N2CCOCC2)cc1`, with 920 nM. With `N=C(N)c1ccc(Nc2nc(Nc3ccc(-c4ccccc4)cc3)ncc2[N+](=O)[O-])cc1` the figure was 804 nM; with `N#CC1(c2ccccc2)CCN(c2nc(NCCCN3CCCC3=O)nc(N3CCCC4CCCCC43)n2)CC1` (stereo not given), 864 nM; with `COc1c(C2CCN(CCCCNC(=O)c3ccc(-c4ccc(Cl)cc4)c(O)c3)CC2)ccc2c1CCCC2`, 226 nM. Then `O=S(=O)(Nc1ccc(CCN2CCCCC2CCN2CCCC2)cc1)c1ccc(-c2ccccc2)cc1` (stereo not given), with 926 nM; and `Cc1ccc2[nH]c(-c3ccccc3Nc3ccnc4cc(-c5nccs5)ccc34)nc2c1`, with 190 nM. `O=C(/C=C/c1ccc(Cl)cc1)NCCCCCN1CCN(C(=O)Nc2ccc(Cl)c(C(F)(F)F)c2)CC1`: the XC50 is 920 nM. With `O=C(Nc1ccc(OC2CCN(Cc3ccccc3)C2)c(Cl)c1)c1ccsc1` (stereo not given) the figure was 735 nM; with `O=C(/C=C/c1ccc([N+](=O)[O-])cc1)N1CCC(CCN2CCC(c3c[nH]c4ccccc34)CC2)CC1`, 743 nM. Then `CN(C)CCOc1ccc2c(=O)cc(CCc3cccc(F)c3F)n(CC(=O)N(C)Cc3ccc(-c4ccc(C(F)(F)F)cc4)cc3)c2c1`, with 1200 nM; and `Clc1ncnc2scc(-c3ccc(Br)cc3)c12`, with 886 nM; and `CCc1cc2c3c(N)nc(N)nc3ccc2n1CC`, with 10.3 nM. Regarding `Cn1cccc1C(=O)C(=O)Nc1ccc(-c2ccc(-c3nc4cc(F)ccc4[nH]3)cc2)cc1`, the XC50 came to 838 nM. As to `Cc1ccc(C)c(Cn2ccc3nc(N)nc(N)c32)c1`, the XC50 is 301 nM. Then `CCC(CC)CN1C(=O)C(c2ccccc2)(c2ccccc2)N=C1N`, with 970 nM; and `O=C(Nc1cccc(-c2csc(-c3nc4ccccc4[nH]3)c2)c1)c1cccnc1`, with 230 nM.
